Results on seven molecules are retold here after patent publication US20080221163A1, “Selective Estrogen Receptor Modulators” (priority 2005, published 2008).

Data set [1] concerns Ishikawa human endometrial tumor cells. The data set can be described thus: Ishikawa Cell Proliferation Assay (alkaline phosphatase readout; agonist and antagonist modes). The format is cell-based. As to conditions: for stimulation compared with tamoxifen: compound alone. The protocol: Ishikawa Cell Proliferation Assay: This assay measures cell proliferation (using an alkaline phosphatase readout) in both an agonist mode in the presence of a compound of the present invention alone, and in an antagonist mode in which the ability of a compound of the present invention to block estradiol stimulation of growth is measured.
Ishikawa human endometrial tumor cells are maintained in MEM (minimum essential medium, with Earle's salts and L-Glutamine, Gibco BRL, Gaithersburg, Md.), supplemented with 10% fetal bovine serum (FBS) (V/V), (Gibco BRL). One day prior to assay, growth media is changed to assay medium, DMEM/F-12 (3:1) (Dulbecco's Modified Eagle Medium: Nutrient Mixture F-12, 3:1 Mixture, phenol red-free, Gibco BRL) supplemented with 5% dextran coated charcoal stripped fetal bovine serum (DCC-FBS) (Hyclone, Logen, Utah), L-Glutamine (2 mM), MEM sodium pyruvate (1 mM), HEPES (N-[2-hydroxyethyl]piperazine-N′-[2-ethanesulfonic acid] 2 mM) all from Gibco BRL). After an overnight incubation, Ishikawa cells are rinsed with Dulbecco's Phosphate Buffered Saline (1×) (D-PBS) without Ca^+2 and Mg^+2 (Gibco BRL), and trypsinized by a 3 minute incubation with 0.25% Trypsin/EDTA, phenol red-free (Gibco BRL). Cells are resuspended in assay medium and adjusted to 250,000 cells/mL. Approximately 25,000 cells in a 100 μl media are added to flat-bottom 96 wells microculture plates (Costar 3596) and incubated at 37° C. in a 5% CO2 humidified incubator for 24 hours. The next day, serial dilutions of compounds are prepared in assay medium (at 6 times the final concentration in the assay). The assay is run in dual mode, agonist and antagonist modes.
For the agonist mode, plates receive 25 μl/well of assay medium followed by 25 μl/well of a diluted compound of the present invention (at 6× the final concentrations). For the antagonist mode, plates receive 25 μl/well of 6 nM E2 (β-Estradiol, Sigma, St. Louis, Mo.) followed by 25 μl/well of a diluted compound of the present invention (at 6× the final concentrations). After an additional 48-hour incubation at 37° C. in a 5% CO2 humidified incubator, media is aspirated from wells and 100 μl fresh assay medium is added to each microculture. Serial dilutions of compounds are prepared and added to the cells as described above. After an additional 72 hour incubation at 37° C. in a 5% CO2 humidified incubator, the assay is quenched by removing media and rinsing plates twice in Dulbecco's Phosphate Buffered Saline (1×) (D-PBS) (Gibco BRL). The plates are dried for 5 minutes and frozen at −70° C. for at least 1 hour. The plates are then removed from the freezer and allowed to thaw at room temperature. To each well, 100 μl of 1-Step™ PNPP (Pierce Chemical Company, Rockford, Ill.) is added. After a 20-minute incubation, plates are read on a spectophotometer at 405 nm.
The data is fitted to a linear interpolation to derive EC50 (for agonist mode) or IC50 (for antagonist mode) values. For the antagonist mode, a % efficacy for each compound is calculated versus E2 (1 nM) alone. For the agonist mode, a % efficacy for each compound is calculated versus the response to tamoxifen.

For data set [2], the system named is estrogen-induced response. Description: 3-Day Rat Uterus Antagonist Assay. The format is in vivo. The note with it: immature female rats, oral, 3 days, with E2 0.1 mg/kg; for inhibition of the estrogen-induced response (uterine weight/body weight ratio): administered at 0.01, 0.1 and 1.0 mg/kg. From the text:
3-Day Rat Uterus Antagonist Assay: This model for uterine antagonism utilizes immature (3 week old) female rats that are highly sensitive to estrogenic stimulation of the uterus given that their circulating estrogen levels are prepubertal. The uteri from immature rats are fully responsive to exogenous estrogen, yet are quiescent in the absence of exogenous estrogen. Administration of exogenous estrogen to immature rats produces a reliable elevation of uterine weight, which can be used to study uterine antagonist effects. The rats are treated with both estradiol and 4 different concentrations of a compound of the present invention for 3 days and then uterine wet weights are measured.
Nineteen to twenty-one day old (or 45-50 g) female rats are orally treated with E2 (0.1 mg/kg, a maximal stimulatory estrogenic stimulus for reliably increasing uterine weight) and 10, 1.0, 0.1 and 0.01 mg/kg test compound for 3 days, 6 rats per group. Test compounds are dissolved in 20% β-hydroxycyclodextrin and administered by oral gavage in a volume of 0.2 mL daily (15 min. prior to the ethynyl estradiol gavage). A vehicle control, E2 alone and E2+raloxifene are also done as controls. The animals are fasted overnight following the final dose. On the following morning, the animals are weighed, then euthanized (by carbon dioxide asphyxiation) and the uteri rapidly collected (via a mid-line ventral incision) and weighed.
Uterine weight/body weight ratios (UWR) are calculated for each animal. The percent inhibition of the estrogen-induced response is then calculated by the following formula: percent inhibition=100×(UWRestrogen−UWRtest compound/UWRestrogen−UWRcontrol). ED50 values are derived from a semi-log regression analysis of the linear aspect of the dose response curve. Both the UWR data and the percent inhibition data are statistically analyzed by one way analysis of variance (ANOVA) with post-hoc testing by Fisher's PLSD when indicated by a p≦0.05. Statistical analyses are performed using the Statview® 4.0 software package.

Data set [3] is described as follows: 10-Day Rat Hormone (Ovarian Stimulation) Screen. In kind it is in vivo. The note with it: mature F344 female rats, oral gavage 10 days, serum about 2 hours after 10th dose, RIA. As for the experimental part: 10-Day Rat Hormone (Ovarian Stimulation) Screen: An initial, first screen for ovarian toxicity is conducted using a 10-day rat hormone study to measure estradiol and luteinizing hormone levels after compound administration. This screen is conducted by administering compound by oral gavage for 10 days to mature (9-10 week old) F344 female rats. Trunk blood is collected by rapid decapitation for evaluation of LH and estradiol levels approximately 2 hours after the 10th dose. Serum, obtained by centrifugation, is removed and stored frozen below −60° C. until assayed. Serum levels of LH and estradiol are measured using radioimmunoassay (RIA) methods.
Rat LH primary antibody and reference preparations (rat LH:RP-3) are obtained from Dr. A. F. Parlow, Director, Pituitary Hormones and Antisera Center, Harbor-UCLA Medical Center, Torrance, Calif. The LH assay upper limits of detection are 30 ng/mL and the lower limits of detection are 0.1 ng/mL for the 100 μl samples.
E2 Clinical Assays. DiaSorin s.r.l., Saluggia (Vercelli), Italy. The upper limit of detection is 1000 pg/mL and the lower limit of detection is 5 pg/mL.

Counter-ions that a name gives are not always drawn. Like-named read-outs stand apart in the source and are kept apart here.

On to `CS(=O)(=O)c1ccc2c(c1)OC(c1ccc(OCCN3CCCCC3)cc1)c1c-2ccc2cc(O)ccc12` (racemic) [Example 3, 8-Methanesulfonyl-5-[4-(2-piperidin-1-yl-ethoxy)-phenyl]-5H-6-oxa-chrysen-2-ol, mono-Hydrochloride salt], for which the “stimulation compared with tamoxifen” value in data set [1] (agonist mode) is “less stimulatory than tamoxifen”. In addition, in data set [2], the “% antagonism” value stood at 81%, the ED50 is recorded as 0.17 mpk and the “inhibition of the estrogen-induced response (uterine weight/body weight ratio)” value is listed as “inhibit the estrogen-induced response”. For the same molecule, in data set [3], the “circulating LH levels” value is given as “did not significantly elevate” and the circulating estradiol levels entry was “did not significantly elevate”.

As to `CSc1ccc2c(c1)OC(c1ccc(OCCN3CCCCC3)cc1)c1c-2ccc2cc(O)ccc12.Cl` (centres unmarked) [Example 1], the “stimulation compared with tamoxifen” value in data set [1] (agonist mode) is given as “less stimulatory than tamoxifen”. Besides, in data set [2], the “% antagonism” value is given as 69%, the ED50 amounted to 0.22 mpk and the “inhibition of the estrogen-induced response (uterine weight/body weight ratio)” value is listed as “inhibit the estrogen-induced response”.

As for `CS(=O)(=O)c1ccc2c(c1)-c1ccc3cc(O)ccc3c1C(c1ccc(OCCN3CCCCC3)cc1)O2.Cl` (centres unmarked) [Example 10, 9-Methanesulfonyl-5-[4-(2-piperidin-1-yl-ethoxy)-phenyl]-5H-6-oxa-chrysen-2-ol hydrochloride salt], the “stimulation compared with tamoxifen” value in data set [1] (agonist mode) is listed as “less stimulatory than tamoxifen”.

On to `CSc1ccc2c(c1)OC(c1ccc(OCCN3CCCCC3)cc1)c1c-2ccc2cc(O)ccc12.Cl` (centres unmarked) [Example 1, 8-Methylsulfanyl-5-[4-(2-piperidin-1-yl-ethoxy)-phenyl-5H-6-oxa-chrysen-2-ol hydrochloride], for which the Emax worked out at 26% in data set [1] (Homo sapiens, Ishikawa, agonist mode, % efficacy versus the response to tamoxifen, read-out: relative % efficacy) and 92% in data set [1] (Homo sapiens, Ishikawa, antagonist mode, versus E2 (1 nM) alone, read-out: % efficacy). In addition, in data set [1] (Homo sapiens, Ishikawa, antagonist mode, block of estradiol stimulation), the IC50 stood at 45 nM.

Take `CNS(=O)(=O)c1ccc2c(c1)OC(c1ccc(OCCN3CCCCC3)cc1)c1c-2ccc2cc(O)ccc12.Cl` (centres unmarked) [Example 5, 8-N-methyl sulfonamide-5-[4-(2-piperidin-1-yl-ethoxy)-phenyl]-5H-6-oxacbrysen-2-ol]: the “stimulation compared with tamoxifen” value in data set [1] (agonist mode) was “less stimulatory than tamoxifen”.

As for `CCS(=O)(=O)c1ccc2c(c1)OC(c1ccc(OCCN3CCCCC3)cc1)c1c-2ccc2cc(O)ccc12.Cl` (centres unmarked) [Example 7, 8-Ethanesulfonyl-5-[4-(2-piperidin-1-yl-ethoxy)-phenyl]-5H-6-oxa-chrysen-2-ol hydrochloride salt], the “stimulation compared with tamoxifen” value in data set [1] (agonist mode) is “less stimulatory than tamoxifen”.

Regarding `CNS(=O)(=O)c1ccc2c(c1)-c1ccc3cc(O)ccc3c1C(c1ccc(OCCN3CCCCC3)cc1)O2.Cl` (centres unmarked) [Example 9, 2-Hydroxy-5-[4-(2-piperidin-1-yl-ethoxy)-phenyl]-5H-6-oxa-chrysen-9-sulfonic acid methylamide hydrochloride salt], the “stimulation compared with tamoxifen” value in data set [1] (agonist mode) is listed as “less stimulatory than tamoxifen”.
